Laboratory results published in US5622947A, “Benzoheterocyclic compounds and vasopressin antagonist and oxytocin antagonist compositions containing a benzoheterocyclic compound” (Otsuka Pharmaceutical Co., Ltd., priority 1992, dated 1997).
Structures can show the parent of a compound that is named as a salt.

Experiments:
[1] = target: T1, V2 Recepter (rat kidney plasma membrane preparations) (Rattus norvegicus, UniProt Q00788); experiment: V2 Recepter binding assay; settings: [3H]-Arg-vasopressin 4×10^-10 M, 4° C., pH 8.0, rat kidney plasma membrane
T1 construct: rat kidney plasma membrane preparations; from tissue; host or cells: rat kidney plasma membranes
T1 sequence (Q00788 whole entry): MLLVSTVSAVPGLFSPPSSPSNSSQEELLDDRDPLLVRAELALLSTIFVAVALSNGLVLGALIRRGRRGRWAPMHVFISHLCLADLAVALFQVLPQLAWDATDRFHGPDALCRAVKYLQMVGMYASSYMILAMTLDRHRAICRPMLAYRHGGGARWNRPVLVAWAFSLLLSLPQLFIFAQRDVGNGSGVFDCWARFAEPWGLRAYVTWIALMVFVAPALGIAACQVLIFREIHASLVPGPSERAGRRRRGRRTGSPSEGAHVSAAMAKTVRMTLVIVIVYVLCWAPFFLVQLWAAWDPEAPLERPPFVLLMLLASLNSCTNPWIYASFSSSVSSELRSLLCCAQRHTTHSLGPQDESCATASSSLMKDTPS
Description: Test 2: V2 Recepter binding assay
By using rat kidney plasma membrane preparations prepared according to Hechter's method [by O. Hechter: J. Bio. Chem., 2.53, 3211 (1978)], the plasma membrane (100,000 dpm, 4×10^-10 M) of [^3 H]-Arg-vasopressin and a test compound (0.6 mg, 10^-10 to 10^-5 M) were incubated at 4° C. for 3 hours in 250 μl (in total volume) of 100 mM Tris-HCl buffer (pH=8.0), containing, 5 mM MgCl2, 1 mM EDTA and 0.1% BSA. After the incubation, the mixture, the mixture was filtered by using a glass filter (GF/F) so as to separate the membrane preparation combining with vasopressin, then washed twice with the buffer (5 ml). This glass filter was taken out and mixed with liquid scintillation cocktail. The amount of [^3 H]-vasopressin combining with the membrane was measured by a liquid scintillation counter and the rate of inhibitory effect of the test compound was calculated according to the following equation: Rate of the inhibitory
C1 : the amount of [^3 H]-vasopressin combining with the membrane in the presence of the testcompound of a known amount,
(§1) C0 : the amount of [^3 H]-vasopressin combining with the membrane in the absence of the test compound,
B1 : the amount of [^3 H]-vasopressin combining with the mebrane in the presence of the excess amount of vasopressin (10^-6 M).
The results are expressed as IC50 value, which is the concentration of the test compound required to achieve the inhibitory effect in the rate of 50%, and are shown in the following Table 157.

[2] = target: T2, Oxytocin receptor (uterin muscle membrane preparation) (Rattus norvegicus, UniProt P70536); experiment: Oxytocin receptor binding assay; settings: [3H]-oxytocin 10^-9 M, 25°, one hour, pH 8.0, uterin muscle membrane, DES-treated
T2 construct: was homogenized, which was used as a membrane; from tissue; host or cells: uterine muscle membranes from diethylstilbestrol-treated animals
T2 sequence (P70536 1-388): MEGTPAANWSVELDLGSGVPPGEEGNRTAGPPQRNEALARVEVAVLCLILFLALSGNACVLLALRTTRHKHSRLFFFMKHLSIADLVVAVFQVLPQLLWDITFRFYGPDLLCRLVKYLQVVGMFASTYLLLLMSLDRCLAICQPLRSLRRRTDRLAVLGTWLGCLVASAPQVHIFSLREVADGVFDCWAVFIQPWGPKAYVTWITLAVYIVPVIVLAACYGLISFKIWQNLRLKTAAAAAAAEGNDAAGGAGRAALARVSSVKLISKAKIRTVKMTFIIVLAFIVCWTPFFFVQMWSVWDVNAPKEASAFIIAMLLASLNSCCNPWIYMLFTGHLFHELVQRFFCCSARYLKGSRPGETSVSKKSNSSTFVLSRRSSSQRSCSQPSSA
Description: Test-5 Oxytocin receptor binding assay
In accordance with Chan's method [by W. Y. Chan, et al.: Endocrinology, 126, 2095-2101 (1990)], the uterin muscle benn injected subcutaneously with diethylstilbe-sterol (DES) the day before and was homogenized, which was used as a membrane prepara tion. The membrane preparation (0.2 mg), [^3 H]-oxytocin (100,000 dpm, 10^-9 M), a test compound (10^-9 to 10^-5 M) were incubated at 25°. for one hour in 100 mM Tris-HCl buffer (pH=8.0, 250 μl) containing 5 mM MgCl2, 1 mM EDTA and 0.1% BSA. The mixture was filtered through a glass filter (GF/F) so as to separate the membrane preparation combining with [^3 H]-oxytocin, then, was washed twicw with the buffer (5 ml). The glass filter was put into a vial and mixed with Aquasole (a liquid scintillation cocktail). The amount of [^3 H]-oxytocin combining w ith the membrane was measured by a liquid scintillation counter. The rate of the inhibitory effect of the test compound was calculated according to the equation as follows: […]
C1 : the amount of [^3 H]-oxytocin combining with the membrane in the presence of a test compound (in known amount),
C0 : the amount of [^3 H]-oxytocin combinig with the membrane in the absence of a test compound,
B: the amount of [^3 H]-oxytocin combining with the membrane in the presence of the excess amount of oxytocin (5×10^-6 M).
The results are expressed as IC50 values, which is the concentration of the test compound required to achieve the inhibitory effect in the rate of 50%.

[3] = target: T3, V1 Recepter (rat liver plasma membrane preparations) (Rattus norvegicus, UniProt P30560); experiment: V1 Recepter binding assay; settings: [3H]-Arg-vasopressin 2×10^-10 M, 37° C., 10 minutes, pH 8.0, rat liver plasma membrane
T3 construct: rat liver plasma membrane preparations; from tissue; host or cells: rat liver plasma membranes
T3 sequence (P30560 whole entry): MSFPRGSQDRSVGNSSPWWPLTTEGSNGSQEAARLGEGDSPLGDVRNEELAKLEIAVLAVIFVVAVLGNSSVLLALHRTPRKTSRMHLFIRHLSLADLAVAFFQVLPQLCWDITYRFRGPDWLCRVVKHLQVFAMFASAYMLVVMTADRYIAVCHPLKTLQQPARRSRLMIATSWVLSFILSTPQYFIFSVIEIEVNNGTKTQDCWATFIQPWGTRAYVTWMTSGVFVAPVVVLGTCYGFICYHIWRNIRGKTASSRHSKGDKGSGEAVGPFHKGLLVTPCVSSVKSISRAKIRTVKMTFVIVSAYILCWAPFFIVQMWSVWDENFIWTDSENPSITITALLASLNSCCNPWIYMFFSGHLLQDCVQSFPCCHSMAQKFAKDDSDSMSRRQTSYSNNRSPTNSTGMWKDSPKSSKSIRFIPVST
Description: Test-1: V1 Recepter binding assay
By using rat liver plasma membrane preparations prepared according to Ichiraha's method [by Akira Ichihara: J. Bio. Chem., 258, 9283 (1983)], the plasma membrane (50,000 dpm, 2×10^-10 M) of [^3 H]-Arg-vasopressin and a test compound (60 μg, 10^-8 to 10^-4 M) were incubated at 37° C. for 10 minutes in 250 μl (in total volume) of 100 mM Tris-HCl buffer (pH=8.0), containing 5 mM MgCl2, 1 mM EDTA and 0.1% BSA. After the incubation, the mixture was filtered three times by using a glass filter (GF/F) so as to separate the membrane preparation by combining with vasopressin and then washed with the buffer (5 ml). This glass filter was taken out and mixed with a liquid of scintillation cocktail. The amount of [^3 H]-vasopressin combining with the membrane was measured by liquid scintillation counter and the rate of inhibitory effect of the test compound was calculated according to the following equation: […]
C1 : the amount of [^3 H]-vasopressin combining with the membrane in the presence of the test compound of a known amount,
as §1
B1 : the amount of [^3 H]-vasopressin combining with the membrane in the presence of the excess amount of vasopressin (10^-6 M).
The results are expressed as IC50 value, which is the concentration of the test compound required to achieve the inhitory effect in the rate of 50% and are shown in the following Table 156.

Row | IC50 [1] [nM] | IC50 [2] [nM] | IC50 [3] [nM] | SMILES
1 | 8 | 3000 |  | C#CCNCCC1CCCN(C(=O)c2ccc(NC(=O)c3ccccc3Cl)cc2C)c2ccc(Cl)cc21 (centres unmarked) [Example 103, 5-(2-Propargylaminoethyl)-7-chloro-1-[2-methyl-4-(2-chlorobenzoylamino)benzoyl]-2,3,4,5-tetrahydro-1H-benzoazepine.cndot.hydrochloride]
2 | 7 | 5300 |  | C=CCNCCC1CCCN(C(=O)c2ccc(NC(=O)c3ccccc3Cl)cc2C)c2ccc(F)cc21 (centres unmarked) [Example 101, 5-(2-Allylaminoethyl)-7-fluoro-1-[2-methyl-4-(2-chlorobenzoylamino)benzoyl]-2,3,4,5-tetrahydro-1H-benzoazepine]
3 | 14 |  |  | CC(=O)NC1CCN(CCC2CCCN(C(=O)c3ccc(NC(=O)c4ccccc4Cl)cc3C)c3ccc(Cl)cc32)CC1 (centres unmarked) [Example 76, 5-[2-(4-Acetylamino-1-piperidinyl)ethyl]-7-chloro-1-[2-methyl-4-(2-chlorobenzoylamino)benzoyl]-2,3,4,5-tetrahydro-1H-benzoazepine]
4 | 7.2 | 4070 |  | Cc1cc(NC(=O)c2ccccc2Cl)ccc1C(=O)N1CCCC(CCN2CCCC2)c2cc(Cl)ccc21 (centres unmarked) [Example 97, 5-[2-(1-Pyrrolidinyl)ethyl]-7-chloro-1-[2-methyl-4-(2-chlorobenzoylamino)benzoyl]-2,3,4,5-tetrahydro-1H-benzoazepine.cndot.hydrochloride]
5 | 12 |  |  | C=CCN(C)CCC1CCCN(C(=O)c2ccc(NC(=O)c3ccccc3Cl)cc2C)c2ccc(F)cc21 (centres unmarked) [Example 129, 5-[2-(N-Allyl-N-methylamino)ethyl]-7-fluoro-1-[2-methyl-4-(2-chlorobenzoylamino)benzoyl]-2,3,4,5-tetrahydro-1H-benzoazepine]
6 | 7.1 | 2900 |  | Cc1cc(NC(=O)c2ccccc2Cl)ccc1C(=O)N1CCCC(CCNC2CC2)c2cc(Cl)ccc21 (centres unmarked) [Example 102, 5-(2-Cyclopropylaminoethyl)-7-chloro-1-[2-methyl-4-(2-chlorobenzoylamino)benzoyl]-2,3,4,5-tetrahydro-1H-benzoazepine.cndot.hydrochloride]
7 |  |  | 45 | C=CCOC1CCCN(C(=O)c2ccc(NC(=O)c3ccccc3C)cc2)c2ccc(Cl)cc21 (centres unmarked) [Example 64, 5-Allyloxy-7-chloro-1-[4-(2-methylbenzoylamino)benzoyl]-2,3,4,5-tetrahydro-1H-benzoazepine]
8 | 9 |  |  | Cc1cc(NC(=O)c2ccccc2Cl)ccc1C(=O)N1CCCC(CCn2cnnn2)c2cc(Cl)ccc21 (centres unmarked) [Example 98]
9 | 7.5 |  |  | Cc1cc(NC(=O)c2ccccc2Cl)ccc1C(=O)N1CCCC(CCn2cncn2)c2cc(Cl)ccc21 (centres unmarked) [Example 105, 5-[2-(1,2,4-Triazol-1-yl)ethyl]-7-chloro-1-[2-methyl-4-(2-chlorobenzoylamino)benzoyl]-2,3,4,5-tetrahydro-1H-benzoazepine]
10 | 59 |  |  | COc1cc(NC(=O)c2ccccc2C)ccc1C(=O)N1CCC=C(CC(=O)N2CCN(C)CC2)c2cc(F)ccc21 [Example 86, 5-(4-Methyl-1-piperazinyl)carbonylmethyl-7-fluoro-1-[2-methoxy-4-(2-methylbenzoylamino)benzoyl]-2,3,-dihydro-1H-benzoazepine]
11 | 12 | 2800 |  | Cc1cc(NC(=O)c2ccccc2Cl)ccc1C(=O)N1CCCC(CCn2ncnn2)c2cc(Cl)ccc21 (centres unmarked) [Example 99]
12 |  | 190 |  | COc1cc(C(=O)N2CCCC(CC(=O)N(C)C)c3cc(Cl)ccc32)ccc1NC(=O)c1ccccc1Br (centres unmarked) [Example 120, 5-Dimethylaminocarbonylmethyl-7-chloro-1-[3-methoxy-4-(2-bromobenzoylamino)benzoyl]-2,3,4,5-tetrahydro-1H-benzoazepine]
13 |  | 2200 |  | Cc1cc(NC(=O)c2ccccc2Cl)ccc1C(=O)N1CCCC(CC(N)=O)c2cc(Cl)ccc21 (centres unmarked) [Example 123]
14 | 7.4 |  |  | Cc1cc(NC(=O)c2ccccc2Cl)ccc1C(=O)N1CCCC(OCCn2cncn2)c2cc(Cl)ccc21 (centres unmarked) [Example 92]
15 | 32 |  |  | CC(=O)NC1CCN(CCOC2CCCN(C(=O)c3ccc(NC(=O)c4ccccc4Cl)cc3C)c3ccc(Cl)cc32)CC1 (centres unmarked) [Example 75, 5-[2-(4-Acetylamino-1-piperidinyl)ethoxy]-7-chloro-1-[2-methyl-4-(2-chlorobenzoylamino)benzoyl]-2,3,4,5-tetrahydro-1H-benzoazepine]
16 | 14 |  |  | Cc1cc(NC(=O)c2ccccc2Cl)ccc1C(=O)N1CCCC(OCCn2cnnn2)c2cc(Cl)ccc21 (centres unmarked) [Example 93, 5-[2-(1,2,3,4-Tetrazol-1-yl)ethoxy]-7-chloro-1-[2-methyl-4-(2-chlorobenzoylamino)benzoyl]-2,3,4,5-tetrahydro-1H-benzoazepine]
17 |  | 606 |  | COc1cc(NC(=O)c2ccccc2Cl)ccc1C(=O)N1CCCC(CC(=O)N2CCN(c3ccccc3Cl)CC2)c2cc(Cl)ccc21 (centres unmarked) [Example 181]
18 | 17 |  |  | Cc1cc(NC(=O)c2ccccc2Cl)ccc1C(=O)N1CCCC(CCN2CCOCC2)c2cc(Cl)ccc21 (centres unmarked) [Example 95]
19 |  | 46 |  | COc1cc(NC(=O)c2ccccc2C)ccc1C(=O)N1CCCC(OC(=O)CN2CCOCC2)c2cc(Cl)ccc21 (centres unmarked) [Example 17, 5-(2-Morpholinoacetyloxy)-7-chloro-1-[2-methoxy-4-(2-methylbenzoylamino)benzoyl]-2,3,4,5-tetrahydro-1H-benzoazepine]
20 |  | 170 |  | COc1cc(NC(=O)c2ccccc2Br)ccc1C(=O)N1CCCC(CC(=O)N2CCCC2)c2cc(F)ccc21 (centres unmarked) [Example 114]
21 | 4.7 | 4040 |  | C=CCN(C)CCC1CCCN(C(=O)c2ccc(NC(=O)c3ccccc3Cl)cc2C)c2ccc(Cl)cc21 (centres unmarked) [Example 100]
22 | 9 | 4400 |  | Cc1cc(NC(=O)c2ccccc2Cl)ccc1C(=O)N1CCCC(CCN2CCCCC2)c2cc(Cl)ccc21 (centres unmarked) [Example 96, 5-[2-(1-Piperidinyl)ethyl]-7-chloro-1-[2-methyl-4-(2-chlorobenzoylamino)benzoyl]-2,3,4,5-tetrahydro-1H-benzoazepine.cndot.hydrochloride]
